Where “and” joins values, the source holds several entries; their conditions need not be identical. Equal values may be shown once.
What was measured:
Assay type in all cases: cell-based
Parameters in all cases: Shifts in ANAP emission, Ave: unit: nm
[1] = target: T1, ANAP-incorporated TRPM8 (Mus musculus, UniProt Q8R4D5, A875X)
T1 construct: expressed in transfected cells; host or cells: HEK293 cells, co-transfected with the pANAP vector
Experimental: (§1) As fluorescence emission peak of ANAP shifts to a longer wavelength in more hydrophilic environment, we measured the shift in ANAP emission peak to report conformational changes. Fluorescence properties of ANAP may also be affected by other factors such as temperature and pH[31], so we performed our ANAP experiments always at room temperature (22 ± 1°C). To control for changes in solution pH, we added 3 mM HEPES in ANAP imaging solution to buffer the pH at 7.2. We genetically integrated ANAP into a specific site on TRPM8 with special tRNA and synthetase encoded by pANAP vector (Fig. 5d).
(§2) L-ANAP methyl ester was purchased from AsisChem. pANAP vector was purchased from Addgene. ANAP was incorporated into TRPM8 by introducing a TAG amber stop codon mutation as previously reported. Briefly, after co-transfection of both TRPM8 and pANAP vectors, ANAP was directly added to the culture medium to the final concentration of 20 µM. After 1–2 days, ANAP-containing culture medium was completely changed. Cells were further cultured in ANAP-free medium overnight before experiments.
(§3) ANAP fluorescence was excited by the Ar laser with a 375/28 excitation filter, a T400lp dichroic mirror, and a 435LP emission filter on an inverted fluorescence microscope (Nikon TE2000-U) using a ×40 oil-immersion objective (NA 1.3). Emission spectrum of ANAP was imaged with an Acton SpectraPro 2150i spectrograph in conjunction with an optiMOS CCD camera (Qimaging, USA). We determined the ANAP emission peak value by fitting the emission spectrum with a skewed Gauss distribution in Igor Pro version 6.1 (WaveMatrix), and then the difference in emission peak values measured in the absence and presence of menthol was reported as the shift of ANAP emission.

[2] = target: T2, ANAP-incorporated TRPM8 (Mus musculus, UniProt Q8R4D5, D944X); conditions: ANAP incorporation site D944
T2 construct: expressed in transfected cells; host or cells: HEK293 cells, co-transfected with the pANAP vector
Experimental: as §1, §2, §3

[3] = target: T3, ANAP-incorporated TRPM8 (Mus musculus, UniProt Q8R4D5, F872X); conditions: ANAP incorporation site F872
T3 construct: expressed in transfected cells; host or cells: HEK293 cells, co-transfected with the pANAP vector
Experimental: as §1, §2, §3

[4] = target: T4, ANAP-incorporated TRPM8 (Mus musculus, UniProt Q8R4D5, N821X); conditions: ANAP incorporation site N821
T4 construct: expressed in transfected cells; host or cells: HEK293 cells, co-transfected with the pANAP vector
Experimental: as §1, §2, §3

[5] = target: T5, ANAP-incorporated TRPM8 (Mus musculus, UniProt Q8R4D5, N947X); conditions: ANAP incorporation site N947
T5 construct: expressed in transfected cells; host or cells: HEK293 cells, co-transfected with the pANAP vector
Experimental: as §1, §2, §3

[6] = target: T6, ANAP-incorporated TRPM8 (Mus musculus, UniProt Q8R4D5, P952X); conditions: ANAP incorporation site P952; average shift, menthol activated vs resting state
T6 construct: expressed in transfected cells; host or cells: HEK293 cells, co-transfected with the pANAP vector
Experimental: as §1, §2, §3

[7] = target: T7, ANAP-incorporated TRPM8 (Mus musculus, UniProt Q8R4D5, P958X)
T7 construct: expressed in transfected cells; host or cells: HEK293 cells, co-transfected with the pANAP vector
Experimental: as §1, §2, §3

[8] = target: T8, ANAP-incorporated TRPM8 (Mus musculus, UniProt Q8R4D5, Q1003X); conditions: ANAP incorporation site Q1003; average shift, menthol activated vs resting state
T8 construct: expressed in transfected cells; host or cells: HEK293 cells, co-transfected with the pANAP vector
Experimental: as §1, §2, §3

[9] = target: T9, ANAP-incorporated TRPM8 (Mus musculus, UniProt Q8R4D5, S819X); conditions: ANAP incorporation site S819; average shift, menthol activated vs resting state
T9 construct: expressed in transfected cells; host or cells: HEK293 cells, co-transfected with the pANAP vector
Experimental: as §1, §2, §3

[10] = target: T10, ANAP-incorporated TRPM8 (Mus musculus, UniProt Q8R4D5, S823X); conditions: ANAP incorporation site S823
T10 construct: expressed in transfected cells; host or cells: HEK293 cells, co-transfected with the pANAP vector
Experimental: as §1, §2, §3

[11] = target: T11, ANAP-incorporated TRPM8 (Mus musculus, UniProt Q8R4D5, S824X)
T11 construct: expressed in transfected cells; host or cells: HEK293 cells, co-transfected with the pANAP vector
Experimental: as §1, §2, §3

[12] = target: T12, ANAP-incorporated TRPM8 (Mus musculus, UniProt Q8R4D5, T795X); conditions: ANAP incorporation site T795; average shift, menthol activated vs resting state
T12 construct: expressed in transfected cells; host or cells: HEK293 cells, co-transfected with the pANAP vector
Experimental: as §1, §2, §3

[13] = target: T13, ANAP-incorporated TRPM8 (Mus musculus, UniProt Q8R4D5, W896X); conditions: ANAP incorporation site W896
T13 construct: expressed in transfected cells; host or cells: HEK293 cells, co-transfected with the pANAP vector
Experimental: as §1, §2, §3

[14] = target: T14, ANAP-incorporated TRPM8 (Mus musculus, UniProt Q8R4D5, W898X); conditions: ANAP incorporation site W898
T14 construct: expressed in transfected cells; host or cells: HEK293 cells, co-transfected with the pANAP vector
Experimental: as §1, §2, §3

[15] = target: T15, ANAP-incorporated TRPM8 (Mus musculus, UniProt Q8R4D5, Y808X); conditions: ANAP incorporation site Y808; average shift, menthol activated vs resting state
T15 construct: expressed in transfected cells; host or cells: HEK293 cells, co-transfected with the pANAP vector
Experimental: as §1, §2, §3

[16] = target: T16, ANAP-incorporated TRPM8 (Mus musculus, UniProt Q8R4D5, Y999X); conditions: ANAP incorporation site Y999; average shift, menthol activated vs resting state
T16 construct: expressed in transfected cells; host or cells: HEK293 cells, co-transfected with the pANAP vector
Experimental: as §1, §2, §3

[17] = average shift, menthol activated vs resting state

SMILES: CC(C)[C@@H]1CC[C@@H](C)C[C@H]1O [menthol, (−)-menthol]
- Shifts in ANAP emission, Ave ([1]; ANAP at A875): 6.61
- shift of ANAP emission peak ([1]; ANAP at A875 site, redshifted, menthol-induced (0.5 mM), n = 5): 6.6 ± 0.4 nm
- Shifts_ave ([1]; ANAP incorporation site A875, average shift, menthol activated vs resting state): 6.61 nm
- Shifts in emission ([1]; ANAP incorporation site A875, menthol activated vs resting state, single measurement): 6.25 nm and 6.04 nm and 7.45 nm and 7.64 nm and 5.66 nm
- Emission Peak at menthol activated state ([1]; ANAP incorporation site A875, single measurement): 495.85 nm and 493.43 nm and 494.62 nm and 492.72 nm and 492.66 nm
- Shifts_ave [2, 17]: -0.0133 nm
- Emission Peak at menthol activated state ([2]; single measurement): 482.52 nm and 471.8 nm and 476.65 nm and 473.2 nm and 484.21 nm and 484.16 nm
- Shifts_ave [3, 17]: 0.53 nm
- Emission Peak at menthol activated state ([3]; single measurement): 477.57 nm and 487.64 nm and 475.42 nm and 485.75 nm and 480.39 nm
- Shifts_ave [4, 17]: 0.50 nm
- Emission Peak at menthol activated state ([4]; single measurement): 493.6 nm
- Shifts_ave [5, 17]: 0.33 nm
- Emission Peak at menthol activated state ([5]; single measurement): 485.99 nm and 482.4 nm and 486.05 nm and 485.2 nm and 481.1 nm
- Shifts_ave [6]: 1.08 nm
- Shifts in ANAP emission, Ave ([7]; ANAP at P958): 2.76
- Shifts_ave ([7]; ANAP incorporation site P958, average shift, menthol activated vs resting state): 2.32 nm
- Shifts in emission ([7]; ANAP incorporation site P958, menthol activated vs resting state, single measurement): 2.11 nm and 2.76 nm and 2.75 nm and 1.64 nm
- Shifts_ave [8]: 1.02 nm
- Shifts_ave [9]: 0.65 nm
- Shifts_ave [10, 17]: 0.97 nm
- Emission Peak at menthol activated state ([10]; single measurement): 488.83 nm and 484.77 nm and 484.58 nm and 485.28 nm
- Shifts in ANAP emission, Ave ([11]; ANAP at S824): 2.89
- Shifts_ave ([11]; ANAP incorporation site S824, average shift, menthol activated vs resting state): 2.90 nm
- Emission Peak at menthol activated state ([11]; ANAP incorporation site S824, single measurement): 488.12 nm and 482.56 nm and 490.74 nm
- Shifts_ave [12]: 1.996 nm
- Shifts_ave [13, 17]: -1.22 nm
- Emission Peak at menthol activated state ([13]; single measurement): 474.04 nm and 481.17 nm and 479.96 nm and 475.43 nm
- Shifts_ave [14, 17]: -1.33 nm
- Emission Peak at menthol activated state ([14]; single measurement): 483.12 nm and 481.69 nm and 486.71 nm and 481.28 nm
- Shifts_ave [15]: 1.79 nm
- Shifts_ave [16]: 0.79 nm

Reference: article PMC7391767, “Molecular mechanisms underlying menthol binding and activation of TRPM8 ion channel” (Nature Communications, 2020)
